These results are taken from patent US12274703B2, “Compositions and methods of treatment for neurological disorders comprising a dementia” (Gliapharm SA, priority 2017, dated 2025).

Assay [1] concerns primary astrocytes. As to the kind of experiment: Intracellular glycogen quantification, Example 2. As to conditions: 10 μM, 3 h (GP-0157: 0.1, 1, 10 μM). The format is cell-based, mouse. As to the method:
Primary cultures of cerebrocortical astrocytes were obtained from 1 to 2-day-old OF1 mouse pups (Charles River). Briefly, cortices were isolated and minced in small pieces under a dissecting microscope. The cells were incubated for 30 min at 37° C. in a solution containing 20 U/ml papain, 1 mM L-cysteine and 10 kU/ml DNase I. After dissociation, papain activity was stopped by the addition of fetal calf serum (FCS). Single-cell suspension was then obtained by mechanical dissociation, which consisted in cells trituration in a DMEM D7777 medium supplemented with 44 mm NaHCO3, 10 ml/L antibiotic/antimycotic solution and 10% FCS. The cells were seeded at an average density of ˜10,000 cells/cm2 on poly-D-lysine coated 96- or 12-well culture plates, depending on their use, and grown in DMEM D7777 medium supplemented with 44 mm NaHCO3, 10 ml/L antibiotic/antimycotic solution and 10% FCS at 37° C. in a humidified atmosphere containing 5% CO2/95% air. Culture medium was renewed twice a week. Cells were stimulated and harvested between DIV14 and DIV17, when confluence and cell growth were optimal.
Astrocytes grown on 12-well plates were used for intracellular glycogen quantifications. Cells were stimulated with Vehicle (DMSO), with compounds of the invention (10 μM), or with a positive control for 180 min, at 37° C. 5% CO2/95% air in D5030 medium complemented with 5 mM D-glucose and 44 mM sodium bicarbonate (pH 7.2). […] At the end of the stimulation, medium was removed and replaced with 600 μl of 30 mM Tris HCl, and stored at −20° C.
First, the amount of proteins in each sample was quantified to assess whether harvested astrocytes from primary cell cultures yielded enough and equivalent amounts of proteins on each replicates. Proteins were quantified using the micro BCA Protein Assay kit (Thermo Scientific), according to manufacturer's instructions. Next, intracellular glycogen concentrations were quantified using a 250 μl-aliquot of the same stimulated, thawed, and sonicated cell lysate. After an incubation period of 30 min at 90° C. and 400 rpm, 28 μl of a 0.1M acetic acid/sodium acetate buffer (pH 4.6) was added to each lysate aliquots, which were then separated in two. Each split aliquots received either 5 μl of amyloglucosidase or H2O, and incubated for 120 min at 37° C. After centrifugation at 16,000 G for 5 min, 20 μl of supernatant were placed in a 96-well plate, to which 150 μl of a mix containing 0.67 mM ATP, 0.67 mM NADP, 1.8% hexokinase/glucose-6-phosphate dehydrogenase in a 0.1M Tris Buffer-HCl/3.3 mM magnesium (pH 8.1) buffer was added. Fluorescence intensity (340 nm excitation/440 nm emission) was measured using a Safire 2 spectrophotometer. Glucose concentrations were assessed relative to a glucose standard curve, and glycogen concentrations were calculated by subtracting glucose values of samples that had received amyloglucosidase (i.e. that had degraded their glycogen stores) to samples that had not. Intracellular levels of glycogen, which is the main source of glucose storage in the brain, were analyzed in primary astrocytes after treatment with compounds of interest (10 μM, 3 h) (FIG. 5B), and compound GP-0157 (0.1, 1, 10 μM, 3 h) (FIG. 18).

Assay [2] concerns astrocytes. As to the kind of experiment: Intracellular glycogen quantification. The assay is classed as cell-based, mouse. Conditions: CDC54K hits; 10 μM, 3 h.
Assay [3] relates to cerebral extracellular lactate. As to the kind of experiment: In vivo pharmacodynamics - lactate biosensors. More on the design: species or system mouse. Conditions: 100 mg/kg per os; AUC ratio vs vehicle. As to the method: Extracellular levels of lactate were monitored in vivo using lactate biosensors (Pinnacle Technology), according to the manufacturer's instructions. Cannulae were surgically implanted in mice cerebral motor cortex areas M1/M2 (coordinates: +1.94 mm (to bregma), lateral −1.4 mm (to mideline), ventral −1.0 mm (to dura)) 5-7 days before administration of the compounds. Drugs were administered per os as previously described, and cerebral levels of extracellular lactate were dynamically recorded for 6 hours. Mice were administered vehicle alone first, followed 3 hours later by vehicle or drug (10 or 100 mg/kg). Area Under the Curve (AUC) quantifying the fluctuations of extracellular lactate concentrations for each of the compound tested was calculated using Graphad Prism and the ratio of AUC after drug over Vehicle administration was calculated. Groups of 8 male mice were used for each condition.
To measure biological effect of lead molecules in vivo in the brain, lactate levels were quantified after administration of the drug by using lactate biosensors implanted in the cortex of freely moving mice.

Take `Cc1nc2ccc(NS(=O)(=O)c3cccc(F)c3)cc2s1` [T6937001]: the “Mobilization of intracellular glycogen” value in assay [1] is recorded as “significantly enhance”. Further, in assay [2], the “Glycogen (statistical significance of glycogen degradation)” value is on record as “ns”.

On to `O=S(=O)(Nc1cc(F)cc(F)c1)c1ccc2ccccc2c1` [T5884038], for which, in assay [1], the “Mobilization of intracellular glycogen” value is given as “significantly enhance”.

Consider `COc1ccc(Nc2nc(N3CCOCC3)c3ccccc3n2)cc1.Cl` [T0508-5190], for which the “Mobilization of intracellular glycogen” value in assay [1] was “significantly enhance”.

For `N#Cc1ccc(C(=O)N2CCC(Nc3ncnc4c3CCC4)C2)cc1` (stereo not shown) [T636-2387], the “Mobilization of intracellular glycogen” value in assay [1] is on record as “significantly enhance”. For the same compound, the Cerebral lactate entry in assay [3] is “Significant increase”. Besides, the “Glycogen (statistical significance of glycogen degradation)” value in assay [2] is “ns”.

For `O=C1CCCN1c1ccc(S(=O)(=O)Nc2cccc(/C=C/c3ccccn3)c2)cc1` [T5644989], the “Mobilization of intracellular glycogen” value in assay [1] is listed as “significantly enhance”.

Take `CC(=O)N1CCc2sc(S(=O)(=O)N3CCN(c4ccccc4C)CC3)cc2C1` [P025-0159]: the “Mobilization of intracellular glycogen” value in assay [1] is on record as “significantly enhance”. In addition, the Cerebral lactate result in assay [3] is on record as “Significant increase”. In addition, in assay [2], the “Glycogen (statistical significance of glycogen degradation)” value is given as “ns”.

Take `c1ccc2c(c1)CCN(c1ncnc3sccc13)C2` [T0517-8250]: the “Mobilization of intracellular glycogen” value in assay [1] is listed as “significantly enhance”. The “Glycogen (statistical significance of glycogen degradation)” value in assay [2] is listed as “ns”.

For `CCc1nc(-c2csc(S(=O)(=O)NCc3ccc4c(c3)OCO4)c2)no1` [L287-0468], in assay [1], the “Mobilization of intracellular glycogen” value is reported as “significantly enhance”.

`COc1cc(C)c(Cl)cc1S(=O)(=O)NCc1ccncc1` [T5580243]: the Cerebral lactate entry in assay [3] was “Significant increase”. The “Glycogen (statistical significance of glycogen degradation)” value in assay [2] was “ns”.

Take `Cc1ccccc1NC(=O)C1CCCN(c2ncnc3oc(C)c(C)c23)C1` (stereo not shown) [F228-0422]: the “Mobilization of intracellular glycogen” value in assay [1] was “significantly enhance”.

For `COc1ccccc1[N+]1=C2CCCCCN2C(O)(c2ccc(C)cc2)C1` (stereo not shown) [K404-0834], the “Mobilization of intracellular glycogen” value in assay [1] was “significantly enhance”.

Turning to `CCn1nccc1-c1csc(S(=O)(=O)Nc2ccc(Cl)cc2F)c1` [L924-1031], the “Mobilization of intracellular glycogen” value in assay [1] is “significantly enhance”.
